Measured values: patent US6852673B2, “Herbicidal pyridine compounds” (BASF Aktiengesellschaft, priority 1998, dated 2005)

Key:
Type in all cases: in vivo
Glycine max (GLXMA) = experiment: Pre-emergence herbicidal evaluation, soyabeans
Procedure, shortened: (§1)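 Seeds are mixed into potting soil and planted; the pots are sprayed with aqueous acetone containing compound (about 0.0125 to 0.4 kg/ha equivalent); they are kept and watered in a greenhouse; each pot is rated at 2 to 4 weeks.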

Hordeum vulgare (HORVW) [1] = experiment: Pre-emergence herbicidal evaluation, winter barley
Procedure, shortened: as §1

Oryza sativum (ORYSA) [2] = experiment: Pre-emergence herbicidal evaluation, rice
Procedure, shortened: as §1

[3] = test system: Triticum aestivum (TRZAW); experiment: Pre-emergence herbicidal evaluation, winter wheat
Procedure, shortened: as §1

[4] = test system: Abutilon theophrasti (ABUTH); experiment: Pre-emergence herbicidal evaluation, velvetleaf
Procedure, shortened: as §1

[5] = test system: Ambrosia artemiisifolia (AMBEL); experiment: Pre-emergence herbicidal evaluation, ragweed
Procedure, shortened: as §1

[6] = test system: Ipomoea hederacea (IPOHE); experiment: Pre-emergence herbicidal evaluation, morning glory
Procedure, shortened: as §1

Lamium purpureum (LAMPU) [7] = experiment: Pre-emergence herbicidal evaluation, purple deadnettle
Procedure, shortened: as §1

[8] = test system: Matricaria inodora (MATIN); experiment: Pre-emergence herbicidal evaluation, mayweed
Procedure, shortened: as §1

Solanum nigrum (SOLNI) [9] = experiment: Pre-emergence herbicidal evaluation, black nightshade
Procedure, shortened: as §1

Stellaria media (STEME) [10] = experiment: Pre-emergence herbicidal evaluation, chickweed
Procedure, shortened: as §1

[11] = test system: Alopecurus myosuroides (ALOMY); experiment: Pre-emergence herbicidal evaluation, black grass
Procedure, shortened: as §1

[12] = test system: Echinochloa grus galli (ECHCG); experiment: Pre-emergence herbicidal evaluation, barnyard grass
Procedure, shortened: as §1

Setaria viridis (SETVI) [13] = experiment: Pre-emergence herbicidal evaluation, green foxtail
Procedure, shortened: as §1

Hordeum vulgare (HORVW) [14] = experiment: Post-emergence herbicidal evaluation, winter barley; details: rated 2 to 4 weeks after treatment
Procedure, shortened: (§2)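 Plants rated 0–9 (0 = growth as untreated control, 9 = death) 2 to 4 weeks after greenhouse post-emergence treatment. Formulations were water-diluted acetone solutions sprayed at doses equivalent to about 0.03 to 0.4 kg test compound per hectare per pot.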

Oryza sativum (ORYSA) [15] = experiment: Post-emergence herbicidal evaluation, rice; details: rated 2 to 4 weeks after treatment
Procedure, shortened: as §2

[16] = test system: Triticum aestivum (TRZAW); experiment: Post-emergence herbicidal evaluation, winter wheat; details: rated 2 to 4 weeks after treatment
Procedure, shortened: as §2

Zea mays (ZEAMX) = experiment: Post-emergence herbicidal evaluation, maize; details: rated 2 to 4 weeks after treatment
Procedure, shortened: as §2

[17] = test system: Abutilon theophrasti (ABUTH); experiment: Post-emergence herbicidal evaluation, velvetleaf; details: rated 2 to 4 weeks after treatment
Procedure, shortened: as §2

[18] = test system: Ambrosia artemiisifolia (AMBEL); experiment: Post-emergence herbicidal evaluation, ragweed; details: rated 2 to 4 weeks after treatment
Procedure, shortened: as §2

Galium aparine (GALAP) = experiment: Post-emergence herbicidal evaluation, cleaver; details: rated 2 to 4 weeks after treatment
Procedure, shortened: as §2

Lamium purpureum (LAMPU) [19] = experiment: Post-emergence herbicidal evaluation, purple deadnettle; details: rated 2 to 4 weeks after treatment
Procedure, shortened: as §2

[20] = test system: Matricaria inodora (MATIN); experiment: Post-emergence herbicidal evaluation, mayweed; details: rated 2 to 4 weeks after treatment
Procedure, shortened: as §2

Solanum nigrum (SOLNI) [21] = experiment: Post-emergence herbicidal evaluation, black nightshade; details: rated 2 to 4 weeks after treatment
Procedure, shortened: as §2

Stellaria media (STEME) [22] = experiment: Post-emergence herbicidal evaluation, chickweed; details: rated 2 to 4 weeks after treatment
Procedure, shortened: as §2

Setaria viridis (SETVI) [23] = experiment: Post-emergence herbicidal evaluation, green foxtail; details: rated 2 to 4 weeks after treatment
Procedure, shortened: as §2

COc1cc(OCC(F)(F)C(F)F)nc(Oc2cc(C(F)(F)F)nn2C)c1 [Example 4, 2-(1-Methyl-3-trifluoromethylpyrazol-5-yloxy)-4-methoxy-6-(2,2,3,3-tetrafluoropropyloxy)pyridine]
0 (0 - No effect): TRZAW rating ([3]; dose 0.013 kg/ha) | TRZAW rating ([3]; dose 0.025 kg/ha)
3 (3 - Moderate effect): HORVW rating (Hordeum vulgare (HORVW) [1]; dose 0.1 kg/ha) | ORYSA rating (Oryza sativum (ORYSA) [2]; dose 0.4 kg/ha) | ABUTH rating ([4]; dose 0.013 kg/ha) | IPOHE rating ([6]; dose 0.013 kg/ha) | ALOMY rating ([11]; dose 0.025 kg/ha) | ECHCG rating ([12]; dose 0.013 kg/ha) | HORVW rating (Hordeum vulgare (HORVW) [14]; dose 0.03 kg/ha) | HORVW rating (Hordeum vulgare (HORVW) [14]; dose 0.1 kg/ha) | TRZAW rating ([16]; dose 0.1 kg/ha) | ZEAMX rating (Zea mays (ZEAMX); dose 0.1 kg/ha) | AMBEL rating ([18]; dose 0.03 kg/ha)
8 (8 - Approaching complete kill): GLXMA rating (Glycine max (GLXMA); dose 0.4 kg/ha) | LAMPU rating (Lamium purpureum (LAMPU) [7]; dose 0.013 kg/ha) | LAMPU rating (Lamium purpureum (LAMPU) [7]; dose 0.025 kg/ha) | MATIN rating ([8]; dose 0.013 kg/ha) | MATIN rating ([8]; dose 0.025 kg/ha) | SOLNI rating (Solanum nigrum (SOLNI) [9]; dose 0.025 kg/ha) | SOLNI rating (Solanum nigrum (SOLNI) [9]; dose 0.1 kg/ha) | SOLNI rating (Solanum nigrum (SOLNI) [9]; dose 0.4 kg/ha) | ALOMY rating ([11]; dose 0.1 kg/ha) | ALOMY rating ([11]; dose 0.4 kg/ha) | ECHCG rating ([12]; dose 0.1 kg/ha) | ECHCG rating ([12]; dose 0.4 kg/ha) | SETVI rating (Setaria viridis (SETVI) [13]; dose 0.025 kg/ha) | LAMPU rating (Lamium purpureum (LAMPU) [19]; dose 0.4 kg/ha) | STEME rating (Stellaria media (STEME) [22]; dose 0.4 kg/ha) | SETVI rating (Setaria viridis (SETVI) [23]; dose 0.1 kg/ha)
7 (7 - Good herbicidal effect): ABUTH rating ([4]; dose 0.1 kg/ha) | AMBEL rating ([18]; dose 0.4 kg/ha) | LAMPU rating (Lamium purpureum (LAMPU) [19]; dose 0.03 kg/ha) | MATIN rating ([20]; dose 0.1 kg/ha) | MATIN rating ([20]; dose 0.4 kg/ha)
1 (1 - Trace effect): GLXMA rating (Glycine max (GLXMA); dose 0.013 kg/ha) | HORVW rating (Hordeum vulgare (HORVW) [1]; dose 0.013 kg/ha) | ORYSA rating (Oryza sativum (ORYSA) [2]; dose 0.013 kg/ha) | ORYSA rating (Oryza sativum (ORYSA) [2]; dose 0.025 kg/ha) | TRZAW rating ([3]; dose 0.1 kg/ha)
2 (2 - Slight effect): HORVW rating (Hordeum vulgare (HORVW) [1]; dose 0.025 kg/ha) | ORYSA rating (Oryza sativum (ORYSA) [2]; dose 0.1 kg/ha) | ORYSA rating (Oryza sativum (ORYSA) [15]; dose 0.03 kg/ha) | ORYSA rating (Oryza sativum (ORYSA) [15]; dose 0.1 kg/ha) | TRZAW rating ([16]; dose 0.03 kg/ha) | ZEAMX rating (Zea mays (ZEAMX); dose 0.03 kg/ha)
6 (6 - Herbicidal effect): GLXMA rating (Glycine max (GLXMA); dose 0.1 kg/ha) | IPOHE rating ([6]; dose 0.025 kg/ha) | SOLNI rating (Solanum nigrum (SOLNI) [9]; dose 0.013 kg/ha) | STEME rating (Stellaria media (STEME) [10]; dose 0.025 kg/ha) | ABUTH rating ([17]; dose 0.1 kg/ha) | ABUTH rating ([17]; dose 0.4 kg/ha) | AMBEL rating ([18]; dose 0.1 kg/ha) | GALAP rating (Galium aparine (GALAP); dose 0.03 kg/ha) | STEME rating (Stellaria media (STEME) [22]; dose 0.03 kg/ha) | STEME rating (Stellaria media (STEME) [22]; dose 0.1 kg/ha) | SETVI rating (Setaria viridis (SETVI) [23]; dose 0.03 kg/ha)
5 (5 - Definite injury): ABUTH rating ([4]; dose 0.025 kg/ha) | ECHCG rating ([12]; dose 0.025 kg/ha) | SETVI rating (Setaria viridis (SETVI) [13]; dose 0.013 kg/ha) | HORVW rating (Hordeum vulgare (HORVW) [14]; dose 0.4 kg/ha) | TRZAW rating ([16]; dose 0.4 kg/ha) | ZEAMX rating (Zea mays (ZEAMX); dose 0.4 kg/ha) | MATIN rating ([20]; dose 0.03 kg/ha) | SOLNI rating (Solanum nigrum (SOLNI) [21]; dose 0.1 kg/ha) | SOLNI rating (Solanum nigrum (SOLNI) [21]; dose 0.4 kg/ha)
9 (9 - Complete kill): ABUTH rating ([4]; dose 0.4 kg/ha) | AMBEL rating ([5]; dose 0.025 kg/ha) | AMBEL rating ([5]; dose 0.1 kg/ha) | AMBEL rating ([5]; dose 0.4 kg/ha) | IPOHE rating ([6]; dose 0.1 kg/ha) | IPOHE rating ([6]; dose 0.4 kg/ha) | LAMPU rating (Lamium purpureum (LAMPU) [7]; dose 0.1 kg/ha) | LAMPU rating (Lamium purpureum (LAMPU) [7]; dose 0.4 kg/ha) | MATIN rating ([8]; dose 0.1 kg/ha) | MATIN rating ([8]; dose 0.4 kg/ha) | STEME rating (Stellaria media (STEME) [10]; dose 0.1 kg/ha) | STEME rating (Stellaria media (STEME) [10]; dose 0.4 kg/ha) | SETVI rating (Setaria viridis (SETVI) [13]; dose 0.1 kg/ha) | SETVI rating (Setaria viridis (SETVI) [13]; dose 0.4 kg/ha) | GALAP rating (Galium aparine (GALAP); dose 0.1 kg/ha) | GALAP rating (Galium aparine (GALAP); dose 0.4 kg/ha) | SETVI rating (Setaria viridis (SETVI) [23]; dose 0.4 kg/ha)
4 (4 - Injury): GLXMA rating (Glycine max (GLXMA); dose 0.025 kg/ha) | HORVW rating (Hordeum vulgare (HORVW) [1]; dose 0.4 kg/ha) | TRZAW rating ([3]; dose 0.4 kg/ha) | AMBEL rating ([5]; dose 0.013 kg/ha) | STEME rating (Stellaria media (STEME) [10]; dose 0.013 kg/ha) | ORYSA rating (Oryza sativum (ORYSA) [15]; dose 0.4 kg/ha) | ABUTH rating ([17]; dose 0.03 kg/ha) | SOLNI rating (Solanum nigrum (SOLNI) [21]; dose 0.03 kg/ha)
